The structures appear in SMILES notation.

Data set [1] can be described thus: Oral bioavailability in CD1 mouse assessed as baloxavir acid level at 15 mg/kg administered as single dose by LC-MS/MS analysis. In kind it is ADME, organism-based. Conditions: in vivo.
A short description of data set [2]: Elimination rate constant in CD1 mouse plasma assessed as baloxavir acid level at 15 mg/kg, po administered as single dose measured up to 24 hrs by LC-MS/MS analysis. The settings on record: in vivo. In kind it is ADME, organism-based.
A short description of data set [3]: Ratio of AUClast in CD1 mouse kidney to plasma assessed as baloxavir acid level at 15 mg/kg, po administered as single dose measured up to 24 hrs by LC-MS/MS analysis. The settings on record: other tissue. In kind it is ADME, organism-based.
A short description of data set [4]: AUClast in CD1 mouse heart assessed as baloxavir acid level at 15 mg/kg, po administered as single dose measured up to 24 hrs by LC-MS/MS analysis. In kind it is ADME, organism-based. The settings on record: in vivo.
Data set [5] is described as follows: AUClast in CD1 mouse lung assessed as baloxavir acid level at 15 mg/kg, po administered as single dose measured up to 24 hrs by LC-MS/MS analysis. In kind it is ADME, organism-based. Conditions: in vivo.
Data set [6] is described as follows: Cmax in CD1 mouse trachea assessed as baloxavir acid level at 15 mg/kg, po administered as single dose measured after 4 hrs by LC-MS/MS analysis. In kind it is ADME, organism-based. More on the design: dose 15 mg/kg, route oral. The settings on record: in vivo.
The nature of data set [7]: Tmax in CD1 mouse spleen assessed as baloxavir acid level at 15 mg/kg, po administered as single dose measured up to 24 hrs by LC-MS/MS analysis. In kind it is ADME, organism-based. Conditions: in vivo.
Data set [8] can be described thus: MRTlast in CD1 mouse spleen assessed as baloxavir acid level at 15 mg/kg, po administered as single dose measured up to 24 hrs by LC-MS/MS analysis. In kind it is ADME, organism-based. The settings on record: in vivo.
Data set [9] can be described thus: Ratio of AUClast in CD1 mouse spleen to plasma assessed as baloxavir acid level at 15 mg/kg, po administered as single dose measured up to 24 hrs by LC-MS/MS analysis. In kind it is ADME, organism-based. The settings on record: other tissue.
The nature of data set [10]: Cytotoxicity against human PBMC cells assessed as reduction in cell viability by ATP bioluminescence assay. In kind it is cell-based.
The nature of data set [11]: Acute toxicity in CD1 mouse assessed as effect on intestine at 2000 mg/kg, po measured after 2 weeks by macroscopic analysis. In kind it is organism-based. Conditions: in vivo, 336 h.
Data set [12] can be described thus: AUClast in CD1 mouse plasma assessed as (12aR)-12-(Diphenylmethyl)-7-hydroxy-3,4,12,12a-tetrahydro-1H-[1,4]oxazino[3,4-c]pyrido[2,1-f ][1,2,4]triazine-6,8-dione level at 15 mg/kg, po administered as single dose measured up to 24 hrs by LC-MS/MS analysis. In kind it is ADME, organism-based. Set-up: dose 15 mg/kg, time < 24 hr, route oral. Conditions: in vivo.

Data set [13] can be described thus: AUCinfinity in CD1 mouse liver assessed as (12aR)-12-(Diphenylmethyl)-7-hydroxy-3,4,12,12a-tetrahydro-1H-[1,4]oxazino[3,4-c]pyrido[2,1-f ][1,2,4]triazine-6,8-dione level at 15 mg/kg, po administered as single dose measured up to 24 hrs by LC-MS/MS analysis. In kind it is ADME, organism-based. More on the design: dose 15 mg/kg, route oral, time infinity. The settings on record: in vivo.

Data set [14] can be described thus: Ratio of AUClast in CD1 mouse kidney to plasma assessed as (12aR)-12-(Diphenylmethyl)-7-hydroxy-3,4,12,12a-tetrahydro-1H-[1,4]oxazino[3,4-c]pyrido[2,1-f ][1,2,4]triazine-6,8-dione level at 15 mg/kg, po administered as single dose measured up to 24 hrs by LC-MS/MS analysis. The settings on record: other tissue. In kind it is ADME, organism-based.
The nature of data set [15]: Tmax in CD1 mouse heart assessed as (12aR)-12-(Diphenylmethyl)-7-hydroxy-3,4,12,12a-tetrahydro-1H-[1,4]oxazino[3,4-c]pyrido[2,1-f ][1,2,4]triazine-6,8-dione level at 15 mg/kg, po administered as single dose measured up to 24 hrs by LC-MS/MS analysis. Conditions: in vivo. In kind it is ADME, organism-based.
A short description of data set [16]: Ratio of AUClast in CD1 mouse lung to plasma assessed as (12aR)-12-(Diphenylmethyl)-7-hydroxy-3,4,12,12a-tetrahydro-1H-[1,4]oxazino[3,4-c]pyrido[2,1-f ][1,2,4]triazine-6,8-dione level at 15 mg/kg, po administered as single dose measured up to 24 hrs by LC-MS/MS analysis. Conditions: other tissue. In kind it is ADME, organism-based.
Data set [17] in a line: Ratio of AUClast in CD1 mouse trachea to plasma assessed as (12aR)-12-(Diphenylmethyl)-7-hydroxy-3,4,12,12a-tetrahydro-1H-[1,4]oxazino[3,4-c]pyrido[2,1-f ][1,2,4]triazine-6,8-dione level at 15 mg/kg, po administered as single dose measured up to 24 hrs by LC-MS/MS analysis. In kind it is ADME, organism-based. Conditions: in vivo.
The nature of data set [18]: Elimination rate constant in CD1 mouse small intestine assessed as (12aR)-12-(Diphenylmethyl)-7-hydroxy-3,4,12,12a-tetrahydro-1H-[1,4]oxazino[3,4-c]pyrido[2,1-f ][1,2,4]triazine-6,8-dione level at 15 mg/kg, po administered as single dose measured up to 24 hrs by LC-MS/MS analysis. The settings on record: in vivo. In kind it is ADME, organism-based.
Data set [19] is described as follows: Half life in CD1 mouse small intestine assessed as (12aR)-12-(Diphenylmethyl)-7-hydroxy-3,4,12,12a-tetrahydro-1H-[1,4]oxazino[3,4-c]pyrido[2,1-f ][1,2,4]triazine-6,8-dione level at 15 mg/kg, po administered as single dose measured up to 24 hrs by LC-MS/MS analysis. In kind it is ADME, organism-based. The settings on record: in vivo.
Data set [20] can be described thus: AUClast in CD1 mouse small intestine assessed as (12aR)-12-(Diphenylmethyl)-7-hydroxy-3,4,12,12a-tetrahydro-1H-[1,4]oxazino[3,4-c]pyrido[2,1-f ][1,2,4]triazine-6,8-dione level at 15 mg/kg, po administered as single dose measured up to 24 hrs by LC-MS/MS analysis. In kind it is ADME, organism-based. Conditions: in vivo.
A short description of data set [21]: Ratio of AUClast in CD1 mouse brain to plasma assessed as (12aR)-12-(Diphenylmethyl)-7-hydroxy-3,4,12,12a-tetrahydro-1H-[1,4]oxazino[3,4-c]pyrido[2,1-f ][1,2,4]triazine-6,8-dione level at 15 mg/kg, po administered as single dose measured up to 24 hrs by LC-MS/MS analysis. In kind it is ADME, organism-based.
The nature of data set [22]: AUCinfinity in CD1 mouse spleen assessed as (12aR)-12-(Diphenylmethyl)-7-hydroxy-3,4,12,12a-tetrahydro-1H-[1,4]oxazino[3,4-c]pyrido[2,1-f ][1,2,4]triazine-6,8-dione level at 15 mg/kg, po administered as single dose measured up to 24 hrs by LC-MS/MS analysis. In kind it is ADME, organism-based. More on the design: dose 15 mg/kg, route oral, time infinity. Conditions: in vivo.

Data set [23] is described as follows: AUClast in CD1 mouse muscle assessed as (12aR)-12-(Diphenylmethyl)-7-hydroxy-3,4,12,12a-tetrahydro-1H-[1,4]oxazino[3,4-c]pyrido[2,1-f ][1,2,4]triazine-6,8-dione level at 15 mg/kg, po administered as single dose measured up to 24 hrs by LC-MS/MS analysis. In kind it is ADME, organism-based, Muscle tissue. Conditions: in vivo.
The nature of data set [24]: AUCinfinity in CD1 mouse muscle assessed as (12aR)-12-(Diphenylmethyl)-7-hydroxy-3,4,12,12a-tetrahydro-1H-[1,4]oxazino[3,4-c]pyrido[2,1-f ][1,2,4]triazine-6,8-dione level at 15 mg/kg, po administered as single dose measured up to 24 hrs by LC-MS/MS analysis. Conditions: in vivo. In kind it is ADME, organism-based, Muscle tissue. More on the design: dose 15 mg/kg, route oral, time infinity.

The nature of data set [25]: Stability in rat plasma assessed as parent compound remaining at 1 uM measured after 4 hrs by LC-MS/MS analysis. In kind it is ADME, cell-free. Conditions: read-out: Stability.

What is called Cmax is the maximum level reached in the sampled fluid or tissue. Usually Tmax stands for the time from dosing to the highest level. As for `COC(=O)OCOc1c2n(ccc1=O)N([C@@H]1c3ccccc3SCc3c1ccc(F)c3F)[C@@H]1COCCN1C2=O` [BALOXAVIR MARBOXIL], in data set [1], the F is 26.9%. Further, the Kel in [2] came out at 0.18 h⁻¹. Further, the figures for the “Ratio AUC” value in [3] and in [9] were 46.8 and 7.99, respectively. The AUClast in data set [4] and in data set [5] was 8959 ng·h/g each time. The Cmax in data set [6] is recorded as 277 ng/g. Also, in data set [7], the Tmax amounted to 2 h. The MRTlast in [8] amounted to 5.54 h.

What is called CC50 is the concentration giving 50% cytotoxicity. Consider `COC(=O)OCOc1c2n(ccc1=O)N(C(c1ccccc1)c1ccccc1)[C@@H]1COCCN1C2=O`, for which the CC50 in [10] is 100 µM. In addition, the Activity result in data set [11] is listed as “Non-Toxic”. The AUClast was found to be 3287 ng·h/mL in data set [12], 43656 ng·h/g in data set [20] and 7425 ng·h/g in data set [23]. For the same molecule, the AUC was determined as 34838 ng·h/g in data set [13], 4713 ng·h/g in data set [22] and 7693 ng·h/g in data set [24]. The “Ratio AUC” value in data set [14] was 5.5; in [16] it was 2.53; in [17] it was 3.22; in data set [21], 0.19. Moreover, in [15], the Tmax worked out at 0.5 h. Also, in [18], the Kel was 0.54 h⁻¹. Moreover, the t1/2 in data set [19] was determined as 1.28 h. For the same molecule, in [25], the remaining at 4 h, 1 µM turned out to be 0%.

(Values after ChEMBL document CHEMBL4622979, “Non-rigid Diarylmethyl Analogs of Baloxavir as Cap-Dependent Endonuclease Inhibitors of Influenza Viruses” (J Med Chem, 2020).)
